Data as given in patent publication US11304944B2, “MetAP2 inhibitors and methods of treating obesity” (SynDevRx, Inc., priority 2013, dated 2022).

Legend:
DIO C57Bl6 mice = assay: In vivo testing DIO C57Bl6 mice: weight changes, food consumption, body composition (Compound 16 vs TNP-470); conditions: for Body Weight Day 33: sc; for Total fat as a percentage of BW / B.W. / Epididymal Fat / Inguinal Fat / Liver / Retroperitoneal Fat / Total Fat: Day 33
Method: C57Bl6 male mice (N=6) thirteen weeks old with an average of weight of 34 g were ad libitum fed TD.06414 a high fat diet composed of 60% Kcal from fat (Harlan diet). On study day 1 animals were randomized into groups so that the average weight of each group was 33.9 g. […] Animals were weighed every other day. Food consumption was measured weekly. On day 33 gross pathology was performed to determine body composition.

Sprague Dawley male rats = assay: Tolerability of high IV doses on q7d schedule in Sprague Dawley rats; type: in vivo; conditions: 100 mg/kg or 200 mg/kg IV on days 1, 8, 15, 22 and 29
Method: Sprague Dawley male rats (N=3) nine to ten weeks old with an average weight of 300 g were ad libitum fed standard rodent diet (PharmaServ lab diet 5001). […] The rats were weighed periodically and bled on day 10, day 17, day 24. For in-life blood collections, the rats were anesthetized with an inhalation mixture of 4% Isoflurane and 1.5% oxygen, then blood was collected via retro-orbital plexus puncture at a volume of at least 1 mL. […] Within the limits of comparison to normal ranges and pre-dose data, clinical findings for albumin, albumin/globulin ratio, alkaline, phosphatase, ALT (SGPT), AST (SGOT), bicarbonate, direct bilirubin, indirect bilirubin, total bilirubin, BUN, BUN/creatinine ratio, calcium, chloride, cholesterol, CK, creatinine, globulin, glucose, phosphorus, potassium, sodium, sodium/potassium ratio, total protein were unremarkable.

DIO C57Bl/6 mice = assay: In vivo testing DIO mice schedule-dose response: weight, food intake, ipGTT, HOMA-ir data
Method: Animals were dosed according to the schedule in Table 17 below.
Compound dosing occurred between 9 and 10 am on the day of dosing. Groups 6 and 7 received a total of 17 doses. The q4d groups (1, 2, 3, 4, 8, 9) received a total of 9 doses. The q8d group (5) received a total of 5 drug doses. Body weight and food intake were measured every other day. Blood glucose was measured on Day −7, Day 0, Day 7, Day 14, Day 21 and Day 28 at 9:00 am in fed state (BG measured before dose on dosing days). BG was measured by glucometer. An intraperitoneal glucose tolerance test (ipGTT, 6 h fasting) was performed.
The study was terminated on day 34. Liver and epididymal white adipose tissues (eWAT) were harvested, weighed and stored at −80° C. Sera was collected to determine: AST, ALT, ALP, CK, BUN, creatinine, calcium, potassium, sodium, chloride, total protein, albumin, total bilirubin, glucose, triglyceride and cholesterol. Insulin samples were measured using a commercial kit.

poly[HPMA-co-MA-GFLG-N-(trans-4-aminocyclohexyl)carbamoylfumagillol] [Compound 16]
Body Weight Day 33 (DIO C57Bl6 mice; 0.5 mg/kg/day, qod): 30.4 g
Total fat as a percentage of BW (DIO C57Bl6 mice; 1 mg/kg qod): 8.2%
Body Weight Day 33 (DIO C57Bl6 mice; 1.5 mg/kg/day, q4d): 27.4 g
B.W. (DIO C57Bl6 mice; 6 mg/kg q4d): 27.4 grams
Epididymal Fat (DIO C57Bl6 mice; 6 mg/kg q4d): 0.78 grams
Inguinal Fat (DIO C57Bl6 mice; 6 mg/kg q4d): 0.53 grams
Liver (DIO C57Bl6 mice; 6 mg/kg q4d): 1.17 grams
Retroperitoneal Fat (DIO C57Bl6 mice; 6 mg/kg q4d): 0.23 grams
Total Fat (DIO C57Bl6 mice; 6 mg/kg q4d): 1.55 grams
Total fat as a percentage of BW (DIO C57Bl6 mice; 6 mg/kg q4d): 5.6%
degree of weight loss compared with TNP-470 (DIO C57Bl6 mice; FIG. 1): superior to TNP-470 in the degree of weight loss
food consumption compared with TNP-470 (DIO C57Bl6 mice; FIG. 2): causes a greater reduction in food consumption than TNP-470
decrease in weight (DIO C57Bl6 mice; q4d dosing regimen (FIG. 1)): 19%
B.W. (DIO C57Bl6 mice; qod (Cmpd 16 1 mg/kg qod)): 30.4 grams
Epididymal Fat (DIO C57Bl6 mice; qod (Cmpd 16 1 mg/kg qod)): 1.18 grams
Inguinal Fat (DIO C57Bl6 mice; qod (Cmpd 16 1 mg/kg qod)): 0.92 grams
Liver (DIO C57Bl6 mice; qod (Cmpd 16 1 mg/kg qod)): 1.10 grams
Retroperitoneal Fat (DIO C57Bl6 mice; qod (Cmpd 16 1 mg/kg qod)): 0.42 grams
Total Fat (DIO C57Bl6 mice; qod (Cmpd 16 1 mg/kg qod)): 2.52 grams
evidence of neurotoxicity (ataxis, disorientation, tremor or convulsion) (Sprague Dawley male rats): did not exhibit any evidence of neurotoxicity
Glucose, ipGTT 0 min (DIO C57Bl/6 mice; 2 mg/kg q4d): 182.8 mg/dL
Glucose, ipGTT 15 min (DIO C57Bl/6 mice; 2 mg/kg q4d): 488.6 mg/dL
Insulin, ipGTT 0 min (DIO C57Bl/6 mice; 2 mg/kg q4d): 104.6 uU/ml
Insulin, ipGTT 15 min (DIO C57Bl/6 mice; 2 mg/kg q4d): 133.4 uU/ml
Glucose, ipGTT 0 min (DIO C57Bl/6 mice; 6 mg/kg q4d): 179.8 mg/dL
Glucose, ipGTT 15 min (DIO C57Bl/6 mice; 6 mg/kg q4d): 557.3 mg/dL
Insulin, ipGTT 0 min (DIO C57Bl/6 mice; 6 mg/kg q4d): 53.2 uU/ml
Insulin, ipGTT 15 min (DIO C57Bl/6 mice; 6 mg/kg q4d): 64.3 uU/ml
Glucose, ipGTT 0 min (DIO C57Bl/6 mice; 12 mg/kg Q8D): 204.0 mg/dL
Glucose, ipGTT 15 min (DIO C57Bl/6 mice; 12 mg/kg Q8D): 553.1 mg/dL
Insulin, ipGTT 0 min (DIO C57Bl/6 mice; 12 mg/kg Q8D): 75.9 uU/ml
Insulin, ipGTT 15 min (DIO C57Bl/6 mice; 12 mg/kg Q8D): 96.0 uU/ml
fasting insulin (DIO C57Bl/6 mice; all Compound 16 groups, FIG. 22): fasting insulin was also reduced
